One block for each molecule: values may come before it.
How the values were obtained:
[1] = biological target: Ribosomal protein S6 kinase alpha-3 (Homo sapiens, UniProt P51812); assay: Selectivity interaction (KinomeScan (DiscoverX)) EUB0000666a RPS6KA3; conditions: at 10 µM
[2] = biological target: Tyrosine-protein kinase Lyn (Homo sapiens, UniProt P07948); assay: Selectivity interaction (KinomeScan (DiscoverX)) EUB0000607a LYN; conditions: at 10 µM
[3] = biological target: T1, Serine/threonine-protein kinase D1 (Homo sapiens) (UniProt Q15139); assay: Selectivity interaction (KinomeScan (DiscoverX)) EUB0000607a PRKD1; conditions: at 10 µM
T1 sequence (whole entry): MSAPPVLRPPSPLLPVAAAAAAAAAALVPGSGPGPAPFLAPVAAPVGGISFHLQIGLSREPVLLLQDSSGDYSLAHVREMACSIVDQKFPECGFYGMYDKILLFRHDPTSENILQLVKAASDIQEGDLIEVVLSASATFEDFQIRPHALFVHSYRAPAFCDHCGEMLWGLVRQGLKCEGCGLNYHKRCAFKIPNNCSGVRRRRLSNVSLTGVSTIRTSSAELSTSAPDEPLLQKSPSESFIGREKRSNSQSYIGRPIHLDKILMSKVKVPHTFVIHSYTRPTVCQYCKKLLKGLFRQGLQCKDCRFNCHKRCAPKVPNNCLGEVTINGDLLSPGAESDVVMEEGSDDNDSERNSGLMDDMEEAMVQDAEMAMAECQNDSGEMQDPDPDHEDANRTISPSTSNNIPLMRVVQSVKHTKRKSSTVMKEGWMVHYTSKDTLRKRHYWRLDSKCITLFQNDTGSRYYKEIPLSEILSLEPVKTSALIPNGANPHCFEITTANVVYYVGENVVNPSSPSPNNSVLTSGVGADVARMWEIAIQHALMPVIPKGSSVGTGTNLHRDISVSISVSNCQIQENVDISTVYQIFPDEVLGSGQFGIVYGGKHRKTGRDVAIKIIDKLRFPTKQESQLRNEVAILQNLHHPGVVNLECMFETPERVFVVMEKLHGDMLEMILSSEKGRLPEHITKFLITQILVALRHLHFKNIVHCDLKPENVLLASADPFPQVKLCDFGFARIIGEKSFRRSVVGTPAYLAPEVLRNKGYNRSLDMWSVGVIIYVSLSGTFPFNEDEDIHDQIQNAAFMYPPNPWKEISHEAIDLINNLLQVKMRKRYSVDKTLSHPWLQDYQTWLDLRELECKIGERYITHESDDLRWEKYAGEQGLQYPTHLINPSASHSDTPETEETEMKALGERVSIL

[4] = biological target: T2, Protein kinase C iota type (Homo sapiens) (UniProt P41743); assay: Selectivity interaction (ActivX KiNativ screen (kinase selectivity in THP-1 cell lysates)) EUB0000639a PRKCI; format: subcellular; conditions: lysate
T2 sequence (whole entry): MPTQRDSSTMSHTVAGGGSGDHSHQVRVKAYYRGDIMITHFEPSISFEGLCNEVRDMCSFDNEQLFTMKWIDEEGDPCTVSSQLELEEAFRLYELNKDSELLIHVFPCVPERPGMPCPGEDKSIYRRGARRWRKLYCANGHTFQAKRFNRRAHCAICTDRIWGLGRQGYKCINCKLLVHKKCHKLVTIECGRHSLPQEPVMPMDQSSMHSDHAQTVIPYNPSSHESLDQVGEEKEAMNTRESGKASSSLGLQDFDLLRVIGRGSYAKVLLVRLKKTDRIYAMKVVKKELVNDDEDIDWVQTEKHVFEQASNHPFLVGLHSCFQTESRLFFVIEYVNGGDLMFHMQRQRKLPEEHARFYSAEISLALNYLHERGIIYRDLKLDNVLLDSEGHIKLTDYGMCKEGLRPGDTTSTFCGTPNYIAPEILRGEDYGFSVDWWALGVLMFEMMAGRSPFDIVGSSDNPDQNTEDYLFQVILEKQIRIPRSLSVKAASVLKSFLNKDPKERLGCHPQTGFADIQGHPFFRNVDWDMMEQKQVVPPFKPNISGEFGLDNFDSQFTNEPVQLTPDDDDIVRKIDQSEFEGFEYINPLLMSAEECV

[5] = biological target: T3, Myotonin-protein kinase (Homo sapiens) (UniProt Q09013); assay: Selectivity interaction (Ambit KINOMEscan and KiNATiv profiling in Jurkat cells) EUB0000090b DMPK; format: cell-based; conditions: at 1 µM
T3 sequence (whole entry): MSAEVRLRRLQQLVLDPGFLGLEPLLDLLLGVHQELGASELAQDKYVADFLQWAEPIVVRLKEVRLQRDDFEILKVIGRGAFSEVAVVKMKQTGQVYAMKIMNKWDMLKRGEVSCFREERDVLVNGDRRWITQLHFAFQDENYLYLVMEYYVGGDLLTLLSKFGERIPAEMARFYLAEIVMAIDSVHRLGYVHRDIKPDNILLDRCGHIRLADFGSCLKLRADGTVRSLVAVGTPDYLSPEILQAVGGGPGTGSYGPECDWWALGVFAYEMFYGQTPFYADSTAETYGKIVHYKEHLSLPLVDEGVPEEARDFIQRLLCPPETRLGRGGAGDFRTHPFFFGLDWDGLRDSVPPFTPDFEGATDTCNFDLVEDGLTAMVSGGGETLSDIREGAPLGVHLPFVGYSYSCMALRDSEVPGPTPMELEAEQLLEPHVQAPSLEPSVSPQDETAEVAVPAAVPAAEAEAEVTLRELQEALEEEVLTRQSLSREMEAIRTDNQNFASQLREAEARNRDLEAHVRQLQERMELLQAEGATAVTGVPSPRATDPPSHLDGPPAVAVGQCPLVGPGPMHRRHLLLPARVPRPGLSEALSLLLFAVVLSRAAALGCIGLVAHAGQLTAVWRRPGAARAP

[6] = biological target: Non-receptor tyrosine-protein kinase TYK2 (Homo sapiens, UniProt P29597)
Non-receptor tyrosine-protein kinase TYK2, sequence (P29597 whole entry): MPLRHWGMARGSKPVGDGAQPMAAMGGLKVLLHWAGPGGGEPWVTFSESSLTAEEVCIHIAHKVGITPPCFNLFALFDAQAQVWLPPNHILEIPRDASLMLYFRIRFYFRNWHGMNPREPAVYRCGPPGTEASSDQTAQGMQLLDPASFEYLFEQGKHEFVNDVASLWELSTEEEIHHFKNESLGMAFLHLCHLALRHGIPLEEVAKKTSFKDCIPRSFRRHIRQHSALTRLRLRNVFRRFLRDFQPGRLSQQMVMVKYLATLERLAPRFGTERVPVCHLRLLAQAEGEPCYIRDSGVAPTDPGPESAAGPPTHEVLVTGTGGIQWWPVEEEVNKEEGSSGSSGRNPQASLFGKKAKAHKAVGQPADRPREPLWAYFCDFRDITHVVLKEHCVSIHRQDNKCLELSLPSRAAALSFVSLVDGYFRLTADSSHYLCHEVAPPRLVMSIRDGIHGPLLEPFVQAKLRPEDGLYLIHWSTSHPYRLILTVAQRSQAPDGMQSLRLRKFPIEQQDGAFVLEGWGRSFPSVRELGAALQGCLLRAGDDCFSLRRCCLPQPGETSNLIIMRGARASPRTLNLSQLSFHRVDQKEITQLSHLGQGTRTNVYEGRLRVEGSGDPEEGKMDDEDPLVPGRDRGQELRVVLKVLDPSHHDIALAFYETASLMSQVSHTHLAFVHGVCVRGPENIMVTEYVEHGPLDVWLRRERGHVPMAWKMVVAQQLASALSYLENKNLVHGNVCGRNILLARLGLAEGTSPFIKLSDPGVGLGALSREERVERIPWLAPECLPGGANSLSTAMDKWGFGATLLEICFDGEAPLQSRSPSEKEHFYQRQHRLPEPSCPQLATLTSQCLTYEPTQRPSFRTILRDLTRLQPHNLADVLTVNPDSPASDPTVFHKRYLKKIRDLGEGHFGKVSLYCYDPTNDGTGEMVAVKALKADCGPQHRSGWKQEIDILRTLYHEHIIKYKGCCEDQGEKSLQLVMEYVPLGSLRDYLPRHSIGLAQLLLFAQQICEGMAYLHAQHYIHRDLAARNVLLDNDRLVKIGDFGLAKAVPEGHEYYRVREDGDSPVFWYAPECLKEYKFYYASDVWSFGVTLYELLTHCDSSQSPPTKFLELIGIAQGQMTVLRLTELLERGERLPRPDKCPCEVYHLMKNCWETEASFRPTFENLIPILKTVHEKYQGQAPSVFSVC

[7] = biological target: Receptor-type tyrosine-protein kinase FLT3 (Homo sapiens) (UniProt P36888); conditions: at 10 µM
Receptor-type tyrosine-protein kinase FLT3 (Homo sapiens), sequence (P36888 whole entry): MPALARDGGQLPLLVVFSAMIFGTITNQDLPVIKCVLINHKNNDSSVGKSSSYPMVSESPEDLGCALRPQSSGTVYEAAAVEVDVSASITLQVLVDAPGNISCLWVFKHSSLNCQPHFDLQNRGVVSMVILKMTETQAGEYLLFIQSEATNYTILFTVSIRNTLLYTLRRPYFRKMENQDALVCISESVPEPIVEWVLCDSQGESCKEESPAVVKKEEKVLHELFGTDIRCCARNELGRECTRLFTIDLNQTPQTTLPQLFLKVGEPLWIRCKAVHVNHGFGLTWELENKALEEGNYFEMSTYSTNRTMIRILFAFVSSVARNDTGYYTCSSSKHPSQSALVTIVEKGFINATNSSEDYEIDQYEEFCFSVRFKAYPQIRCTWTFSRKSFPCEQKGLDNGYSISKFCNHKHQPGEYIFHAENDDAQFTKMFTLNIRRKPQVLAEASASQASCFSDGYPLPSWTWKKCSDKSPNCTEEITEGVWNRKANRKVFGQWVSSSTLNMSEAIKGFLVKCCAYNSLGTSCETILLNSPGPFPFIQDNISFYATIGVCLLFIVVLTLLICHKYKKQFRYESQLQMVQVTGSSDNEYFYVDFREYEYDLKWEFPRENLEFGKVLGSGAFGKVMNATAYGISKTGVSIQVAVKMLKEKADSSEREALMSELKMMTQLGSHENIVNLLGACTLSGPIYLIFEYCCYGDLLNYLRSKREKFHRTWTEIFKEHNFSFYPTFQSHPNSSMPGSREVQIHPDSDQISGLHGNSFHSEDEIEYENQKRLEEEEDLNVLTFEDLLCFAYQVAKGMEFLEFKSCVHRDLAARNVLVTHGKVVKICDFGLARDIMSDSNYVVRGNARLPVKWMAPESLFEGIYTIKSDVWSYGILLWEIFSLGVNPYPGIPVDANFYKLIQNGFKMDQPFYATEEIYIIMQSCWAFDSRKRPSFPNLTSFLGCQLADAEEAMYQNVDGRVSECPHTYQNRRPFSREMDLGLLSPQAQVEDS

Ribosomal protein S6 kinase alpha-3, sequence (P51812 whole entry): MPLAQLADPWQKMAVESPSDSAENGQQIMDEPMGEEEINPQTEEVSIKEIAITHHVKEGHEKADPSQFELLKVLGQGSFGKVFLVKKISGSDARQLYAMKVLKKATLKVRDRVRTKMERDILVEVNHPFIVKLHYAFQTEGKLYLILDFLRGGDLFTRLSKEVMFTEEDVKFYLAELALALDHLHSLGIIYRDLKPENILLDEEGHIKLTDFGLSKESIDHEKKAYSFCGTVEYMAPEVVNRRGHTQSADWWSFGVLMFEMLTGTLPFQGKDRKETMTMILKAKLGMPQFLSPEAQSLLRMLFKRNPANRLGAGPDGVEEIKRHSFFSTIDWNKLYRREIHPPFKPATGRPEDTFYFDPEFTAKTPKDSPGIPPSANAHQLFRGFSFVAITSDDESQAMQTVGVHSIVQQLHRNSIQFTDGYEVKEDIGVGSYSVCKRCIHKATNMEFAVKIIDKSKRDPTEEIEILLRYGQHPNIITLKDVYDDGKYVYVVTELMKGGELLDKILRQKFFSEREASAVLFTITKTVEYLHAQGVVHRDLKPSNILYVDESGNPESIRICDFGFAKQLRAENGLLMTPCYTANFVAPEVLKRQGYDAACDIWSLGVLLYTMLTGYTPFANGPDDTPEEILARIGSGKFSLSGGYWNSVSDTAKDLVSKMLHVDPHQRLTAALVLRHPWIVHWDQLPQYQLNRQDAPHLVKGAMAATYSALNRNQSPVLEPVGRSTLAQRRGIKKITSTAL
Tyrosine-protein kinase Lyn, sequence (P07948 2-512 limits assumed): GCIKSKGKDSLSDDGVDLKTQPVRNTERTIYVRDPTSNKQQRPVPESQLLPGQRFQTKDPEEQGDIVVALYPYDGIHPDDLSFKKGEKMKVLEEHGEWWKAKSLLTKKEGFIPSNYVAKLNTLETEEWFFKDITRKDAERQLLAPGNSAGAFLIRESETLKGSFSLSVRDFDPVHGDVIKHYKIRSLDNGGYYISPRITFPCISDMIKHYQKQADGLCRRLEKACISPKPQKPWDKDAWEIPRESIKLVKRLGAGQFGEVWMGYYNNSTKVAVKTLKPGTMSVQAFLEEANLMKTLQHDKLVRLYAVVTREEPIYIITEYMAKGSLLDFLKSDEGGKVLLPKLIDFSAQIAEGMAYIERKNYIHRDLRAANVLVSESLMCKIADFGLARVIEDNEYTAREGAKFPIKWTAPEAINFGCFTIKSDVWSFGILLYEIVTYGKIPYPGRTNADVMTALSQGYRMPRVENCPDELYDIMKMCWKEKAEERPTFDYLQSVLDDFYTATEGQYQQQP

Compound: O=C(NOC[C@H](O)CO)c1ccc(F)c(F)c1Nc1ccc(I)cc1F
- % of control [1]: 100%

Compound: CNC(=O)Nc1ccc(-c2nc(N3CC4CCC(C3)O4)c3cnn(C4CCC5(CC4)OCCO5)c3n2)cc1
- % of control [2]: 85%
- % of control [3]: 100%

- % of inhibition ([4]; at 0.01 µM): 8.5%
- % of inhibition ([4]; at 0.04 µM): -2.3%
- % of inhibition ([4]; at 0.2 µM): -7.6%
- % of inhibition ([4]; at 1 µM): 6.9%
- % of inhibition ([4]; at 5 µM): -26.2%
Compound: CC[C@@H]1[C@H](F)C(=O)N[C@@H]1COc1nccc2cc(C(N)=O)c(OC)cc12 [ZIMLOVISERTIB]

Compound: CN(C)C/C=C/C(=O)Nc1ccc(C(=O)N2CCCC(Nc3ncc(Cl)c(-c4c[nH]c5ccccc45)n3)C2)cc1 (stereo unspecified)
- % of control [5]: 91%

- IC50 [6]: > 10 µM
Compound: CCc1cccc(CC)c1NC(=O)c1nn(C)c2c1CCc1cnc(Nc3ccc(C(=O)NC4CCN(C)CC4)cc3OC(F)(F)F)nc1-2

Compound: Cc1cc([C@@H](C)Nc2ccccc2C(=O)O)c2nc(N3CCOCC3)cc(=O)n2c1 [AZD-6482]
- % of control [7]: 13%

From ChEMBL document CHEMBL5465560, “Selectivity Literature for EUbOPEN Chemogenomic Library” (2024)
